For 64 molecules, melting point results are on record in a melting point compilation (Tetko et al.; mined from patent text by program, amines drawn as free bases though some values may be those of a salt).

A word on the melting point: it is the temperature, or range, at which the solid turns liquid.

In turn, `CC1(C)CC(=C(c2ccc(O)cc2)c2ccc(OCCCC(=O)O)cc2)CC(C)(C)C1` had a melting point of 203 to 204 °C.
As for `O=C(CBr)Nc1ccc(Br)cc1C(=O)O`, the figure is 203 to 204 °C; as for `O=[N+]([O-])c1cc(-c2cnc3ccccn23)cc(O)c1O`, 110 °C.
In the case of `CNC(=O)C(NC(=O)c1ccc(F)cc1C(F)(F)F)C(O)C(F)(F)F` (centres undefined), the melting point was 212 °C.
As for `COc1ccc2c(c1)Nc1[nH]cnc(=O)c1C2`, the melting point is over 300 °C.
As for `CC(=O)Oc1ccccc1C(=O)Nc1nc(S(C)=O)cs1` (centres undefined), the figure is 167 to 169 °C; as for `BrCc1nc(-c2ccccc2)cc2ccccc12`, 84 °C; as for `CCC1SC(N(C)C(=O)NC)=NN1C(=O)C(C)(C)C` (centres undefined), 144 to 146 °C.
As for `Cc1ccc2nc(CN3CCN(c4ccc(Cl)cc4C#N)CC3)cn2c1`, the figure is 135 to 136 °C; as for `Cc1nc2ccccn2c(=O)c1CCN1CCC(c2noc3cc(F)ccc23)CC1`, 170 °C.
Molecule `Cc1ccc(O)c(C)c1N(C)C` registered a melting point of 162 to 165 °C.
As for `Cn1c(COc2ccc(CC3SC(=O)NC3=O)cc2)nc2ccc(Oc3ccc(NS(C)(=O)=O)cc3)cc21` (centres undefined), the figure is 225 to 226 °C.
As for `CN1C(=O)C(C)(C)C(=O)N(C)c2cc(N)ccc21`, the figure is 221 to 222 °C.
`CCC(=CC(CSc1nnc(C)s1)=NO)C(C)[N+](=O)[O-]` (centres undefined) registered a melting point of 75 to 76 °C.
As for `Cc1ccc(C(=O)N(C)C)cc1-c1nc(NCCNC(C)C)nc2c1CNC(=O)N2c1c(F)cccc1F`, the figure is 130 to 133 °C; as for `CC(O)CNc1c(Br)cnc2ccccc12` (centres undefined), 82 to 83 °C.
With `Cn1c(Cl)c(Cl)c(C(=O)c2cc(C(C)(C)C)c(O)c(C(C)(C)C)c2)c1Cl` the figure was 155 to 156 °C; with `O=Cc1cn(C2CCc3ccccc3C2)c(=S)[nH]1` (centres undefined), 206 to 210 °C.
The molecule `NCC(=O)NCC(=O)Nc1ccc([N+](=O)[O-])cc1C(=O)c1ccccc1` showed a melting point of 121 to 123 °C.
Turning to `O=C(Nc1ccc2cc(CN3CCCC3)cnc2c1)c1ccc(-c2ccccc2)cc1F`, the melting point came out at 166 °C.
In turn, `C=CCc1c(N2C(=O)C3=C(CCCC3)C2=O)ccc(Cl)c1O` displayed a melting point of 80 to 82.5 °C.
On to `CCCCCS(=O)(=O)NCCCc1ccc(OCCOC)cc1Oc1ncc(C(F)(F)F)cc1Cl`, for which the melting point fell in the range of 87 to 90 °C.
`O=C(O)CCCCc1cc2nc(Cl)ccc2n1S(=O)(=O)c1ccccc1` yielded a melting point of 113 °C.
`COc1ccc(N2C(=O)C(OC(C)=O)C2c2ccccc2Cl)cc1` (centres undefined) gave a melting point of 130 to 132 °C.
For `COC(=O)c1cn2c(NCCCCCCNS(=O)(=O)c3ccccc3[N+](=O)[O-])nsc2n1`, the melting point fell in the range of 148 to 149 °C.
The molecule `Cc1nc2cccc3n(CCC4CCN(S(=O)(=O)C(F)(F)F)CC4)c(=O)c1n23` registered a melting point of 169 to 170 °C.
With `Cc1oc(-c2ccccc2)nc1CCOc1ccc(C[C@H](OC(C)C)C(=O)O)c2sccc12` the figure was 167 to 168 °C; with `Nc1cnc2cccnc2c1Cl`, 188 to 190 °C.
As for `CCCCc1c(OC)cc(C(=O)O)nc1Cl`, the figure is 104 to 106 °C; as for `CCOC(=O)N1CCc2nc3ccc(N)cc3c(C)c2CC1`, 214 to 216 °C; as for `O=C1c2c(c(=O)n3nc(-c4ccccc4)cc3n2CC(=NO)c2ccccc2)CN1C1CCCCC1`, over 280 °C.
With `COC(=O)CCc1cc2cc(C#N)ccc2o1` the figure was 91 to 92 °C.
For the molecule `COc1cc(COc2nn(-c3ccccc3)cc2/C=C/C(=O)O)ccc1OCc1nc(-c2ccccc2)oc1C`, the melting point lay in the range of 188 to 189 °C.
As to `c1csc(-c2n[nH]c3c2Cc2cc(CN4CCOCC4)ccc2-3)c1`, the melting point lay in the range of 178 to 179 °C.
With `Cc1ccc2c(n1)C(=O)C(N)=C(Cl)C2=O` the figure was 270 °C.
`CCOC(=O)C1=Cc2cccc(SC)c2OCC1`: the melting point lay within 54 to 55 °C.
Molecule `Nc1ccn(-c2cccc(Cl)c2)n1` displayed a melting point of 106 to 107 °C.
For the molecule `BrCc1cc(-c2ccccc2)cs1`, the melting point lay in the range of 87 to 88.5 °C.
Consider `Cc1ccc(-c2ccc3c(c2)C=C(C(=O)Nc2ccc(CN(C)C4CCSCC4)cc2)CO3)cc1`, for which the melting point was 169 to 171 °C.
Molecule `O=C(CC(=O)c1ccc(Br)cc1)c1ccc(Br)cc1` registered a melting point of 193 to 195 °C.
As for `CCN(CC)c1ccc(C=C2Cc3ccccc3C2=O)c(C)c1`, the figure is 134 °C.
With `CC(C)n1nc(-c2sc(C(=O)NCCN3CCOCC3)nc2-c2ccccc2)ccc1=O` the figure was 196 to 198 °C; with `O=C1Cn2c(c(Br)c3ccccc32)-c2ccccc2N1`, 247 to 249 °C.
`O=C1NCCc2[nH]c3ccccc3c21` came in with a melting point of 212 to 215 °C.
As for `O=C(O)c1ccc(OCCNC(=O)C2Cc3ccccc3N2S(=O)(=O)c2ccc(-c3cccc(C(F)(F)F)c3)cc2)c(F)c1` (centres undefined), the figure is 96 to 104 °C; as for `COc1ccc(-c2cnc3ncnn3c2NC2CCCC2)cc1`, 127 °C.
`[N-]=[N+]=NCC1OC(n2c(Cl)c(C=O)c3cc(Cl)c(Cl)cc32)C(O)C1O` (centres undefined) showed a melting point of 160 to 161 °C.
As for `Cc1cccc(-c2nc(N)sc2-c2ccnc(-c3ccc(C(=O)NC4CCOCC4)cc3)c2)n1`, the figure is 230 to 232 °C; as for `COC(=O)c1cc(OC)c2c(c1)OCO2`, 91 °C; as for `O=C(NC(=O)c1c(F)cccc1Cl)Nc1cnc(Oc2ccc(Cl)c3c2CCCC3)c(Cl)c1`, 244 °C.
The molecule `O=C(O)C1CCCC(NC(=O)C(CS)Cc2ccccc2)C1` (centres undefined) had a melting point of 174 to 177 °C.
`CN(C)C(=O)Nc1cccc(C(=O)c2ccccc2)c1` displayed a melting point of 104 to 105 °C.
In turn, `CSC(c1ccc(Cl)cc1)c1ccc(Cl)cc1` showed a melting point of 56 to 57 °C.
With `CC(C)OC(=O)c1cc(-n2c(=O)cc(C(F)(F)F)[nH]c2=O)c(F)cc1Cl` the figure was 127 to 129 °C; with `CNC(=O)c1c(NC(=O)COC)c(OC)c(C(=O)NC)c(NC(=O)COC)c1OC`, 275 to 276 °C.
For the molecule `CCS(=O)(=O)N1CCN(c2ccc(NC(=O)c3cc(=O)c4cc(OC)cc(N5CCN(C)CC5)c4o3)cc2)CC1`, the melting point was 232 to 234 °C.
With `Oc1cccc2c1ccn2CCCCCc1ccccc1` the figure was 109 to 110 °C; with `Cc1cccc(-c2nc3ccccn3c2-c2ccnc(-c3ccc(C(=O)NC4CCOCC4)cc3)c2)n1`, 128 °C.
Molecule `COc1cc(NC(=O)OCC2c3ccccc3-c3ccccc32)ccc1C=O` showed a melting point of 187 to 188 °C.
With `CC1(C)Oc2cc3nonc3cc2C(N2CCC(O)C2=O)C1O` (centres undefined) the figure was 195 to 196 °C.
As for `CCOC(=O)CCCCC(c1ccc(C)s1)N(O)C(N)=O` (centres undefined), the figure is 106 to 107 °C.
The molecule `OCc1ccc(Cc2ccccc2CO)cc1` displayed a melting point of 102 °C.
The molecule `CCCN(CCCc1c[nH]c2ccc(Cl)cc12)C1COc2c(F)ccc(C(N)=O)c2C1` (centres undefined) showed a melting point of 148 to 154 °C.
`S=C=NCc1cc(-c2ccc(Cl)cc2)no1` came in with a melting point of 74 to 76 °C.
